“Also recorded” adds a separate entry of the source.
Tests used:
[1] = molecular target: Triosephosphate isomerase (Homo sapiens, UniProt P60174); test: Triosephosphate isomerase activity under gas; assay type: biochemical
Procedure: (§1) Solution preparation: Optimized w/v solutions are prepared by diluting the enzyme (units/ml) and the substrate (μg/ml) in appropriate buffer (optimized pH and molarity for enzymes). The solutions are used for gas experiments at once to avoid loss of activity. Various enzyme and substrate concentrations and inhibitors may be employed. Physical parameters are varied as required.
(§2) Preparation of samples: Cuvets are filled with 2 ml of substrate solution by means of a gas-tight syringe. Gas-tight serum vials are filled with enzyme and solvent. Sufficient gas is consecutively bubbled in the cuvets and serum vials, with a 1-hr wait between injections to maximize equilibration of gas. All syringes and dead spaces are purged before filling with the appropriate gas. The amount of gas used has been measured sufficient to saturate the solution required.
(§3) Spectrophotometric time-drive, reaction rate, and kinetic analyses: cuvets and serum vials are saturated with gas 40 minutes before the run. A gas-filled syringe is used to retrieve 0.5 ml of enzyme solution to avoid air contact. The 0.5 ml syringe injections of enzyme are made simultaneously to effect a common starting time to for the samples. 7 gases (air, O2, N2, Ne, Ar, Kr, Xe) are run at various temperatures each (from 0° to 60° ). Changes in the rate or final equilibrium of the reaction versus ambient air are recorded. Comparison is also made with added oxygen, and with deoxygenation. Some samples are also prepared under pressure.
(§4) In a complete experiment, an enzyme at optimal pH and buffering salt concentration is reacted with 5 substrate concentrations in solution with noble gas at 1 atm. […] Controls are also run after evacuation of solution by vacuum. The reaction is monitored colorimetrically in a scanning spectrophotometer in real time, and the signals are treated mathematically to obtain rate and yield differences. Sample numbers are constant and sufficient to ensure significance of results. All parameters are independently controlled and measured, and more complex experiments are occasionally carried out.

[2] = molecular target: Gamma-glutamyl transpeptidase (Homo sapiens, UniProt P19440); test: Gamma-glutamyl transpeptidase activity under gas; assay type: biochemical; details: for effect on α-glutamyltranspeptidase: FIG. 29; for effect: minus = inhibition
Procedure: as §1, §2, §3, §4

[3] = tested on: Beta-D-glucosidase; test: Beta-D-glucosidase activity under gas; assay type: biochemical; details: plus = enhancement
Procedure: as §1, §2, §3, §4

[4] = tested on: Tyrosinase; test: Tyrosinase-L-tyrosine reaction, solution saturated with gas; assay type: biochemical, Mushroom; details: for effect: optimal reaction conditions, simple saturation of solution with gas, minus = inhibition; for effect on rate and final equilibrium of the tyrosinase-L-tyrosine reaction: various temperatures; for temperature dependence of the effect on tyrosinase: various temperatures (15-35° C.)
Procedure: as §1, §2, §3
1. Solution preparation: 10% w/v solutions are prepared by diluting the enzyme (units/ml) and the substrate (μg/ml) in Sodium Phosphate buffer (pH 6.85, optimized pH for enzymes). The solutions are stored in refrigerator (0°-5° C.) and used for gas experiments within 2 or 3 days to avoid loss of activity.
6. Preparation of run samples: Acrylic cuvets are filled with 2 ml of substrate solution by means of a gas tight syringe. Gastight serum vials are filled with enzyme. 3×10 cc of gas are consecutively bubbled in the cuvets and serum vials, with a […] between injections. This represents a 10× displacement of dead volume while maximizing equilibration of gas. All syringes and dead spaces are purged before filling with the appropriate gas. After the third 10 cc injection, the cuvets and serum vials are left overnight under two 10 cc syringes filled with the appropriate gas in refrigerator at 0°-5° C.
8. Spectrophotometric runs: The cuvets and serum vials are filled with 10 cc of gas 40 min before the run. A gas-filled syringe is used to retrieve 0.5 ml of enzyme solution to avoid air contact. The 0.5 ml syringe injections of enzyme are made simultaneously to effect a common starting time t0 for the samples. Seven gases (air, O2, N2, Ne, Ar, Kr, Xe) are run at five temperatures each (15° C., 20° C., 25° C., 30° C., 35° C.). Changes in the rate or final equilibrium of the reaction versus ambient air are recorded.
The optimal conditions are [E]/[S] (100 μg/ml)/(100 μg/ml), the changes in absorbance being observed at 305 nm.
3×10 cc of gas are bubbled in the silicone-sealed cuvets and serum vials (T-3754, T-7755), with an interval of 20 min (at 0°-5°C.) between each gas injection.
a. The silicone-sealed cuvets are removed from the refrigerator 40 min before the experimental run, filled with 10 cc of gas and left at room temperature (26° C.) under two 10 cc syringes.
The 0.5 ml syringe injections of enzyme are made simultaneously to effect a common starting time t0 for the samples.
200 points, 18 s intervals 1 hr run

[5] = molecular target: Phosphoglucose isomerase (Homo sapiens, UniProt P06744); test: Phosphoglucose isomerase activity under gas; assay type: biochemical; details: for effect: phosphoglucose isomerase
Procedure: as §1, §2, §3, §4

[6] = tested on: oxidoreductase enzymes; test: Oxidoreductases, effects for the class; assay type: biochemical; details: for Maxima for class: effect: Class I oxidoreductases, minus = inhibition
Procedure: as §1, §2, §3, §4

[7] = molecular target: Glucose oxidase (Aspergillus niger, UniProt P13006); test: Glucose oxidase activity under gas; assay type: biochemical; details: for effect on glucose oxidase: FIG. 28; for effect: minus = inhibition, dependent upon temperature and substrate concentration
Procedure: as §1, §2, §3

[8] = tested on: Acetyl S-CoA synthetase; test: Acetyl S-CoA synthetase activity under gas (coupled sequence or isolated reaction); assay type: biochemical; details: for Maximum observed enhancement / maximum observed inhibition: depending upon temperature
Procedure: as §1, §2, §3
Maximum observed enhancement vs maximum observed inhibition (depending upon temperature):
In a coupled complex reaction sequence including hydrolytic enzymes: […]

[9] = tested on: α-D-glucosidase; test: α-D-glucosidase activity under gas; assay type: biochemical; details: for effect on α-glucosidase activity: 60° C., FIG. 43; for effect on α-D-glucosidase: FIG. 31
Procedure: Solution preparation: Optimized w/v solutions are prepared by diluting the enzyme (units/ml) and the substrate (μg/ml) in appropriate buffer (optimized pH and molarity for enzymes). The solutions are used for gas experiments at once to avoid loss of activity. Various enzyme and substrate concentrations and inhibitors may be employed. Physical parameters are varied as required. […] Gas-tight serum vials are filled with enzyme and solvent. Sufficient gas is consecutively bubbled in the cuvets and serum vials, with a 1-hr wait between injections to maximize equilibration of gas. All syringes and dead spaces are purged before filling with the appropriate gas. The amount of gas used has been measured sufficient to saturate the solution required. Spectrophotometric time-drive, reaction rate, and kinetic analyses: cuvets and serum vials are saturated with gas 40 minutes before the run. A gas-filled syringe is used to retrieve 0.5 ml of enzyme solution to avoid air contact. […] Changes in the rate or final equilibrium of the reaction versus ambient air are recorded. Comparison is also made with added oxygen, and with deoxygenation. Some samples are also prepared under pressure.

[10] = tested on: tyrosinase; test: Oxygen addition experiment, tyrosinase; assay type: biochemical
Procedure: as §4

[11] = coupled complex reaction sequence including hydrolytic enzymes
[12] = after addition of oxygen up to a saturating amount to the gas-saturated solution
[13] = gas-saturated solution before addition of oxygen

Gamma-glutamyl transpeptidase, sequence (P19440 1-380 limits assumed): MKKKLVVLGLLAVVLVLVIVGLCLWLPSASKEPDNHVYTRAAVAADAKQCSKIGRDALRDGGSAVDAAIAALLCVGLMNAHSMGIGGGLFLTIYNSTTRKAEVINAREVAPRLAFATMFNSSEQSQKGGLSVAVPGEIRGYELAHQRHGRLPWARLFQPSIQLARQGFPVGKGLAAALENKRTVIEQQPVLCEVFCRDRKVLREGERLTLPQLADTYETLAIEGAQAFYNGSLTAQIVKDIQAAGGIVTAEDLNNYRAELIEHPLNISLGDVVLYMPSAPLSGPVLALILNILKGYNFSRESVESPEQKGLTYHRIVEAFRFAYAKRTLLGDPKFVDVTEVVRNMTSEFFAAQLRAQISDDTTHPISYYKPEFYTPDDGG
Triosephosphate isomerase, sequence (P60174 2-249 limits assumed, species assumed): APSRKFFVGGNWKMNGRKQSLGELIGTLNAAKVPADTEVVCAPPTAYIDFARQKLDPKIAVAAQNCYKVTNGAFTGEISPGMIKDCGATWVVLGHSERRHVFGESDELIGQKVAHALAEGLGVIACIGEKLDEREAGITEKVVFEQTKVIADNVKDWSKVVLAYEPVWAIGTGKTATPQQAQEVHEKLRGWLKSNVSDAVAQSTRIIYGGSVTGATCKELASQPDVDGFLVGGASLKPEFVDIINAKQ
Glucose oxidase, sequence (P13006 17-605): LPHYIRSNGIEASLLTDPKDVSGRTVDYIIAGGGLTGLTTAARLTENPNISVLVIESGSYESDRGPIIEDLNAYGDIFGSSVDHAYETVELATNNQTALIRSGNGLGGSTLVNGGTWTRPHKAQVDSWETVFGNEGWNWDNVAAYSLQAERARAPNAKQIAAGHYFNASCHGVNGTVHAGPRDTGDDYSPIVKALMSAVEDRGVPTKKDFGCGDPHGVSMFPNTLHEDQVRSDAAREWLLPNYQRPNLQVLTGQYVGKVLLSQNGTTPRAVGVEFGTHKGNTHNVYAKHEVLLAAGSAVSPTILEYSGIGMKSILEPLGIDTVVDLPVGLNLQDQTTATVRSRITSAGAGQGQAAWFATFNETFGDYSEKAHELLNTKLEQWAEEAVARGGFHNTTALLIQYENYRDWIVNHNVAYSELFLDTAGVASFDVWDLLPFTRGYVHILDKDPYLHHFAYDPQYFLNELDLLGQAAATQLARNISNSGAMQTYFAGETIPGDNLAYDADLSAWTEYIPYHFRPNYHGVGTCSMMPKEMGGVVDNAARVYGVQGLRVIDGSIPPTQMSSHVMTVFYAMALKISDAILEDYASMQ

SMILES | effect ([1]; 10° C., plus = enhancement) | effect on α-glutamyltranspeptidase [2] | effect [2] [%] | effect [3] | effect on tyrosinase-L-tyrosine reaction ([4]; 15° C.) | effect on tyrosinase-L-tyrosine reaction ([4]; 25° C.) | effect ([4]; 25° C.) [%] | effect on tyrosinase-L-tyrosine reaction ([4]; 30° C.) | effect on rate and final equilibrium of the tyrosinase-L-tyrosine reaction [4] | temperature dependence of the effect on tyrosinase [4] | effect [5] | Maxima for class: effect [6] [%] | effect on glucose oxidase [7] | effect [7] [%] | Maximum observed enhancement [8, 11] | maximum observed inhibition [8, 11] | Maximum observed enhancement ([8]; isolated reaction) | maximum observed inhibition ([8]; isolated reaction) [%] | effect on α-glucosidase activity [9] | effect on α-D-glucosidase [9] | further results
[Kr] [Kr, krypton] | +12% | inhibition | -8 | +14% | strong effects; also recorded: large inhibitory effect | inhibitory effect | -73 | inhibitory effect | inhibition | direct inverse (negative) relationship; also recorded: activity transition occuring between 20 °C and 25 °C | +206.4% | -91 | inhibition | -92.7 | +16.1% | -34.6% | +5.0% | -52.6 | inhibited |  | effect on tyrosinase-L-tyrosine reaction ([4]; 20° C., listed as Krypton): lesser inhibitory effect; effect on tyrosinase-L-tyrosine reaction ([4]; 20° C., listed as krypton): effective inhibitors; also recorded: almost of equal effect; also recorded: lesser effect; also recorded: inhibiting effects; effect on phosphoglucose isomerase ([5]; 10° C., FIG. 34): enhancement; effect on oxidoreductase reactions [6]: somewhat lesser effect than xenon; effect on S-acetyl CoA synthetase ([8]; 25° C., FIG. 36): enhancement
[Ar] [Ar, argon] | +8% | inhibition | -5 | +16% | slightly inhibits equilibrium | inhibit at a lesser level than the other noble gases; also recorded: less inhibition at 25 °C than neon; also recorded: inhibitory effect | -60 | inhibitory effect | inhibition; also recorded: surprisingly active at low temperatures |  | +232.5% | -91 | inhibition | -85.8 | +67.7% | +34.6% | +75.4% | -27.6 | enhanced; also recorded: potent enhancer | enhancement | effect ([1]; 25° C., inhibition): -37%; effect on tyrosinase-L-tyrosine reaction ([4]; 20° C.): effective inhibitors; also recorded: strong inhibition; also recorded: dramatically inhibit; also recorded: better inhibition by argon at 20 °C than neon; also recorded: inhibiting effects; effect on phosphoglucose isomerase ([5]; 10° C., FIG. 34): enhancement; effect on oxidoreductase reactions [6]: very active at low temperatures; inhibition [10, 12]: 12%; inhibition [10, 13]: 82%
N#N [N2, nitrogen, reference compound] |  |  |  |  |  | inhibit at a lesser level than the other noble gases |  |  | effective in inhibiting tyrosinase activity; also recorded: inhibition | transitional maxima is observed after 20 °C |  |  | inhibition |  | +31.2% | -39.5% | +35.7% | -118.7 | enhanced | enhancement | effect on tyrosinase-L-tyrosine reaction ([4]; 20° C., listed as Nitrogen): inhibits the reaction fairly well; effect on tyrosinase-L-tyrosine reaction ([4]; 20° C., listed as nitrogen): lesser inhibitory effect; effect on phosphoglucose isomerase ([5]; 25° C., FIG. 35): enhancement; inhibition [10, 12]: zero inhibition; inhibition [10, 13]: 84%; effect on acetyl S-CoA synthetase compared with noble gases [8]: much lesser effect than noble gases except at superoptimal temperatures
[Ne] [Ne, neon] | +4% |  | -3 |  | strong effects; also recorded: large inhibitory effect | inhibitory effect | -46.7 | inhibitory effect |  | activity transition occuring between 20 °C and 25 °C; also recorded: positively temperature dependent | +107% | -85 | inhibition | -61.7 | +2.3% | -21.9% |  |  |  | enhancement | effect on tyrosinase-L-tyrosine reaction ([4]; 20° C.): effective inhibitors; also recorded: dramatically inhibit; also recorded: inhibiting effects; effect on phosphoglucose isomerase ([5]; 25° C., FIG. 35): enhancement; effect, stressed ([5]; stressed = nonoptimal substrate concentration or temperature): -45%

From patent publication US5462861A, “Method for improving enzyme activities with noble gases” (American Air Liquide, Chicago Research Center, priority 1993, dated 1995)
